Among the data in PubChem BioAssay AID1745844 (Carcinogenic Potency Database (CPDB), 2022) are TD50 and carcinogen call values, retold here.

In the data set the test system is rodent lifetime carcinogenesis bioassay, tumor incidence TD50. Description: chronic cancer bioassays in animals – CPDB, compiled studies (AID 1745844).

Molecules are shown by their SMILES. Active and inactive are the calls of the source. The rule behind the calls is not given here.

`O=NN(CCO)CC(O)CO` (stereo not given): the TD50 (hamster, strain Syrian Golden, females, by gavage, site: trachea, lesion: adenoma, dosed 50 weeks, study length 104 weeks) amounted to 52.7 mg/kg/day; the TD50 (rat, strain Fischer 344, females, in drinking water, site: liver, lesion: hepatocellular carcinoma, dosed 75 weeks, study length 120 weeks) was 11.5 mg/kg/day; the TD50 (rat, strain Fischer 344, females, in drinking water, site: liver, lesion: neoplastic nodule, dosed 75 weeks, study length 120 weeks) is 8.69 mg/kg/day; the TD50 (rat, strain Fischer 344, females, in drinking water, site: liver, lesion: several types, types named in the paper, dosed 75 weeks, study length 120 weeks) was 5.98 mg/kg/day.

Take `CCN(Cc1cccc(S(=O)(=O)O)c1)c1ccc(C(=C2C=CC(=[N+](CC)Cc3cccc(S(=O)(=O)O)c3)C=C2)c2ccc(O)cc2S(=O)(=O)[O-])cc1`: the carcinogen call reads like this: (mouse, strain C3HeB/FeJ, females, in feed, site: any site (literature study), lesion: malignant tumor, dosed 104 weeks, study length 104 weeks) “negative (inactive)”; (mouse, strain C3HeB/FeJ, females, in feed, site: any site (literature study), lesion: several types, types named in the paper, dosed 104 weeks, study length 104 weeks) “negative (inactive)”; (mouse, strain C3HeB/FeJ, females, in feed, site: liver, lesion: hepatocellular adenoma, dosed 104 weeks, study length 104 weeks) “negative (inactive)”; (mouse, strain C3HeB/FeJ, males, in feed, site: any site (literature study), lesion: malignant tumor, dosed 104 weeks, study length 104 weeks) “negative (inactive)”; (mouse, strain C3HeB/FeJ, males, in feed, site: lung, lesion: adenoma, dosed 104 weeks, study length 104 weeks) “negative (inactive)”; (rat, strain Osborne-Mendel, females, in feed, site: liver, lesion: one or several types, types not named, dosed 104 weeks, study length 104 weeks) “negative (inactive)”. In addition, the carcinogen call reads like this: (rat, strain Osborne-Mendel, females, in feed, site: mammary gland, lesion: fibroadenoma, dosed 104 weeks, study length 104 weeks) “negative (inactive)”; (rat, strain Osborne-Mendel, males, in feed, site: any site (literature study), lesion: malignant tumor, dosed 104 weeks, study length 104 weeks) “negative (inactive)”; (rat, strain Osborne-Mendel, males, in feed, site: any site (literature study), lesion: several types, types named in the paper, dosed 104 weeks, study length 104 weeks) “negative (inactive)”; (rat, strain Osborne-Mendel, males, in feed, site: liver, lesion: hepatocellular adenoma, dosed 104 weeks, study length 104 weeks) “negative (inactive)”. Besides, the TD50 is 133000 mg/kg/day (inactive) (mouse, strain C3HeB/FeJ, females, in feed, site: lung, lesion: adenoma, dosed 104 weeks, study length 104 weeks); 18100 mg/kg/day (inactive) (mouse, strain C3HeB/FeJ, males, in feed, site: any site (literature study), lesion: several types, types named in the paper, dosed 104 weeks, study length 104 weeks); 46700 mg/kg/day (inactive) (rat, strain Osborne-Mendel, females, in feed, site: any site (literature study), lesion: malignant tumor, dosed 104 weeks, study length 104 weeks); 18500 mg/kg/day (inactive) (rat, strain Osborne-Mendel, females, in feed, site: any site (literature study), lesion: several types, types named in the paper, dosed 104 weeks, study length 104 weeks).

Turning to `CN(C)C=O`, the TD50 was 15800 mg/kg/day (inactive) (mouse, strain Charles River CD1, females, inhaled, site: liver, lesion: hepatocellular adenoma, dosed 78 weeks, study length 78 weeks); 3070 mg/kg/day (inactive) (mouse, strain Charles River CD1, males, inhaled, site: liver, lesion: hepatocellular carcinoma, dosed 78 weeks, study length 78 weeks); 2640 mg/kg/day (inactive) (rat, strain Charles River CD (Sprague-Dawley), males, inhaled, site: liver, lesion: hepatocellular adenoma, dosed 104 weeks, study length 104 weeks); 3340 mg/kg/day (inactive) (rat, strain Charles River CD (Sprague-Dawley), males, inhaled, site: liver, lesion: hepatocellular carcinoma, dosed 104 weeks, study length 104 weeks). The carcinogen call by setting is: (mouse, strain Charles River CD1, males, inhaled, site: liver, lesion: hepatocellular adenoma, dosed 78 weeks, study length 78 weeks) “negative (inactive)”; (rat, strain Charles River CD (Sprague-Dawley), females, inhaled, site: liver, lesion: hepatocellular adenoma, dosed 104 weeks, study length 104 weeks) “negative (inactive)”.

As for `COc1c(Cl)c(Cl)c(Cl)c(Cl)c1Cl`, the TD50 is, setting by setting: (mouse, strain B6C3F1, females, by gavage, site: any site (literature study), lesion: several types, types named in the paper, dosed 103 weeks, study length 104 weeks) 47.5 mg/kg/day (inactive); (mouse, strain B6C3F1, females, by gavage, site: liver, lesion: hepatocellular adenoma + hepatocellular carcinoma + neoplastic nodule, dosed 103 weeks, study length 104 weeks) 63 mg/kg/day; (mouse, strain B6C3F1, females, by gavage, site: lung, lesion: alveolar/bronchiolar adenoma + alveolar/bronchiolar carcinoma, dosed 103 weeks, study length 104 weeks) 776 mg/kg/day; (mouse, strain B6C3F1, males, by gavage, site: adrenal medulla + liver, lesion: pheochromocytoma, benign + hemangiosarcoma, dosed 103 weeks, study length 104 weeks) 38.3 mg/kg/day; (mouse, strain B6C3F1, males, by gavage, site: adrenal medulla, lesion: pheochromocytoma, benign, dosed 103 weeks, study length 104 weeks) 77.4 mg/kg/day; (mouse, strain B6C3F1, males, by gavage, site: any site (literature study), lesion: several types, types named in the paper, dosed 103 weeks, study length 104 weeks) 40.2 mg/kg/day. Besides, the TD50 runs as follows: (mouse, strain B6C3F1, males, by gavage, site: liver, lesion: hemangiosarcoma, dosed 103 weeks, study length 104 weeks) 68 mg/kg/day; (rat, strain Fischer 344, females, by gavage, site: adrenal medulla, lesion: pheochromocytoma, benign, dosed 103 weeks, study length 104 weeks) 174 mg/kg/day; (rat, strain Fischer 344, females, by gavage, site: liver, lesion: hepatocellular adenoma + hepatocellular carcinoma + neoplastic nodule, dosed 103 weeks, study length 104 weeks) 1180 mg/kg/day; (rat, strain Fischer 344, males, by gavage, site: adrenal medulla, lesion: pheochromocytoma, benign, dosed 103 weeks, study length 104 weeks) 24.8 mg/kg/day; (rat, strain Fischer 344, males, by gavage, site: adrenal medulla, lesion: pheochromocytoma, malignant + pheochromocytoma, benign, dosed 103 weeks, study length 104 weeks) 30 mg/kg/day; (rat, strain Fischer 344, males, by gavage, site: liver, lesion: hepatocellular adenoma + hepatocellular carcinoma + neoplastic nodule, dosed 103 weeks, study length 104 weeks) 6460 mg/kg/day.

Consider `CNNC`, for which the TD50 is 0.156 mg/kg/day (hamster, strain Syrian Golden, females, in drinking water, site: blood vessels, lesion: angiosarcoma, dosed 67 weeks, study length 67 weeks); 2.84 mg/kg/day (hamster, strain Syrian Golden, females, in drinking water, site: cecum, lesion: adenocarcinoma, dosed 67 weeks, study length 67 weeks); 2.08 mg/kg/day (hamster, strain Syrian Golden, females, in drinking water, site: cecum, lesion: polypoid adenoma, dosed 67 weeks, study length 67 weeks); 0.864 mg/kg/day (hamster, strain Syrian Golden, females, in drinking water, site: cecum, lesion: several types, types named in the paper, dosed 67 weeks, study length 67 weeks); 2.13 mg/kg/day (hamster, strain Syrian Golden, females, in drinking water, site: heart, lesion: angiosarcoma, dosed 67 weeks, study length 67 weeks); 0.156 mg/kg/day (hamster, strain Syrian Golden, females, in drinking water, site: liver, lesion: angiosarcoma, dosed 67 weeks, study length 67 weeks). For the same compound, the TD50 (hamster, strain Syrian Golden, females, in drinking water, site: liver, lesion: hepatoma, dosed 67 weeks, study length 67 weeks) is 1.4 mg/kg/day; the TD50 (hamster, strain Syrian Golden, females, in drinking water, site: liver, lesion: several types, types named in the paper, dosed 67 weeks, study length 67 weeks) is 0.917 mg/kg/day; the TD50 (hamster, strain Syrian Golden, females, in drinking water, site: lung, lesion: angiosarcoma, dosed 67 weeks, study length 67 weeks) was 0.395 mg/kg/day; the TD50 (hamster, strain Syrian Golden, females, in drinking water, site: muscle, lesion: angiosarcoma, dosed 67 weeks, study length 67 weeks) is 1.03 mg/kg/day; the TD50 (hamster, strain Syrian Golden, females, in drinking water, site: pancreas, lesion: angiosarcoma, dosed 67 weeks, study length 67 weeks) was 18.4 mg/kg/day; the TD50 (hamster, strain Syrian Golden, males, in drinking water, site: blood vessels, lesion: angiosarcoma, dosed 71 weeks, study length 71 weeks) is 0.211 mg/kg/day. Also, the TD50 (hamster, strain Syrian Golden, males, in drinking water, site: cecum, lesion: polypoid adenoma, dosed 71 weeks, study length 71 weeks) was 2.42 mg/kg/day; the TD50 (hamster, strain Syrian Golden, males, in drinking water, site: heart, lesion: angiosarcoma, dosed 71 weeks, study length 71 weeks) is 2.49 mg/kg/day; the TD50 (hamster, strain Syrian Golden, males, in drinking water, site: liver, lesion: angiosarcoma, dosed 71 weeks, study length 71 weeks) was 0.211 mg/kg/day; the TD50 (hamster, strain Syrian Golden, males, in drinking water, site: liver, lesion: several types, types named in the paper, dosed 71 weeks, study length 71 weeks) is 2.05 mg/kg/day; the TD50 (hamster, strain Syrian Golden, males, in drinking water, site: lung, lesion: angiosarcoma, dosed 71 weeks, study length 71 weeks) was 0.685 mg/kg/day; the TD50 (hamster, strain Syrian Golden, males, in drinking water, site: muscle, lesion: angiosarcoma, dosed 71 weeks, study length 71 weeks) is 1.36 mg/kg/day. The TD50 (hamster, strain Syrian Golden, males, in drinking water, site: pancreas, lesion: angiosarcoma, dosed 71 weeks, study length 71 weeks) is 18.6 mg/kg/day; the TD50 (mouse, strain Swiss albino, females, in drinking water, site: liver, lesion: hepatoma, dosed 52 weeks, study length 52 weeks) came to 13.9 mg/kg/day; the TD50 (mouse, strain Swiss albino, females, in drinking water, site: lung, lesion: adenoma, dosed 52 weeks, study length 52 weeks) was 0.559 mg/kg/day; the TD50 (mouse, strain Swiss albino, males, in drinking water, site: blood vessels, lesion: angiosarcoma, dosed 52 weeks, study length 52 weeks) was 0.102 mg/kg/day; the TD50 (mouse, strain Swiss albino, males, in drinking water, site: fat, lesion: angiosarcoma, dosed 52 weeks, study length 52 weeks) stood at 0.215 mg/kg/day; the TD50 (mouse, strain Swiss albino, males, in drinking water, site: liver, lesion: angiosarcoma, dosed 52 weeks, study length 52 weeks) came out at 0.377 mg/kg/day. Moreover, the TD50 is 1.81 mg/kg/day (mouse, strain Swiss albino, males, in drinking water, site: lung, lesion: several types, types named in the paper, dosed 52 weeks, study length 52 weeks); 1.02 mg/kg/day (mouse, strain Swiss albino, males, in drinking water, site: lymph node, lesion: angiosarcoma, dosed 52 weeks, study length 52 weeks); 0.203 mg/kg/day (mouse, strain Swiss albino, males, in drinking water, site: muscle, lesion: angiosarcoma, dosed 52 weeks, study length 52 weeks); 0.337 mg/kg/day (mouse, strain Swiss albino, males, in drinking water, site: paraepididymal tissue, lesion: angiosarcoma, dosed 52 weeks, study length 52 weeks); 0.18 mg/kg/day (mouse, strain Swiss albino, males, in drinking water, site: pararenal tissue, lesion: angiosarcoma, dosed 52 weeks, study length 52 weeks); 0.781 mg/kg/day (mouse, strain Swiss albino, males, in drinking water, site: subcutaneous tissue, lesion: angiosarcoma, dosed 52 weeks, study length 52 weeks). For the same compound, the carcinogen call (mouse, strain Swiss albino, females, in drinking water, site: blood vessels, lesion: angiosarcoma, dosed 52 weeks, study length 52 weeks) was “positive”.

On to `NC(=O)OCC(COC(N)=O)c1ccccc1`, for which the TD50 was 10400 mg/kg/day (mouse, strain Charles River CD1, females, in feed, site: liver, lesion: hepatocellular adenoma, dosed 92 weeks, study length 92 weeks); 10200 mg/kg/day (mouse, strain Charles River CD1, females, in feed, site: liver, lesion: several types, types named in the paper, dosed 92 weeks, study length 92 weeks); 5770 mg/kg/day (mouse, strain Charles River CD1, males, in feed, site: liver, lesion: hepatocellular adenoma, dosed 92 weeks, study length 92 weeks); 934 mg/kg/day (rat, strain Charles River CD (Sprague-Dawley), females, in feed, site: liver, lesion: hepatocellular adenoma, dosed 104 weeks, study length 104 weeks); 9780 mg/kg/day (rat, strain Charles River CD (Sprague-Dawley), males, in feed, site: liver, lesion: several types, types named in the paper, dosed 104 weeks, study length 104 weeks); 1310 mg/kg/day (rat, strain Charles River CD (Sprague-Dawley), males, in feed, site: testis, lesion: interstitial-cell tumor, dosed 104 weeks, study length 104 weeks). In addition, the carcinogen call runs as follows: (rat, strain Charles River CD (Sprague-Dawley), females, in feed, site: liver, lesion: one or several types, types not named, dosed 52 weeks, study length 52 weeks) “negative (inactive)”; (rat, strain Charles River CD (Sprague-Dawley), males, in feed, site: liver, lesion: one or several types, types not named, dosed 52 weeks, study length 52 weeks) “negative (inactive)”.
